GI50 and EC50 data for one molecule are collected here from ChEMBL document CHEMBL1128017, “Antineoplastic agents 323. Isolation and structure of phakellistatin 6 from a Chuuk archipelago marine sponge” (1994).

The GI50 is the concentration giving 50% growth inhibition. High values mean lower sensitivity of the cells, low ones greater sensitivity of the cells.

Converted amounts (≈) assume the structure as drawn. Where a SMILES comes first, the peptide text is derived from it.

Holding throughout (type): functional
Experiment [1] deals with A498. Put plainly: Compound was tested for inhibition of A498 human renal cancer cell line.
In experiment [2] the test system is KM-20L2. Briefly: Compound was tested for inhibition of KM20L2 human colon cancer cell line.
Experiment [3] relates to OVCAR-3. Briefly: Compound was tested for inhibition of OVCAR-3 human ovarian cancer cell line.
Experiment [4] relates to NCI-H460. Briefly: Compound was tested for inhibition of NCI-H460 human lung cancer cell line.
Experiment [5] relates to P388. Put plainly: Compound was tested for inhibition of murine P388 lymphocytic leukemia cancer cell line. As to conditions: Mus musculus, read-out: ED50 (the source's name).
For experiment [6], the system named is SF-295. Put plainly: Compound was tested for inhibition of SF-295 human CNS cancer cell line.
Experiment [7] concerns SK-MEL-5. Put plainly: Compound was tested for inhibition of SK-MEL-5 human melanoma cancer cell line.

As to `CC[C@H](C)[C@@H]1NC(=O)[C@@H]2CCCN2C(=O)[C@H](CC(C)C)NC(=O)[C@H](Cc2c[nH]c3ccccc23)NC(=O)[C@@H]2CCCN2C(=O)[C@H](Cc2ccccc2)NC(=O)[C@@H]2CCCN2C1=O` (cyclo(FPWLPIP)), the 50% growth inhibitory concentration (GI50) worked out at 0.078 µg/mL (≈ 0.0917 µM) in experiment [1]; 0.021 µg/mL (≈ 0.0247 µM) in experiment [2]; 0.025 µg/mL (≈ 0.0294 µM) in experiment [3]; 0.019 µg/mL (≈ 0.0223 µM) in experiment [4]; 0.041 µg/mL (≈ 0.0482 µM) in experiment [6]; 0.032 µg/mL (≈ 0.0376 µM) in experiment [7]. In addition, the EC50 in experiment [5] was found to be 0.185 µg/mL (≈ 0.217 µM).
